According to ChEMBL document CHEMBL1909046, “DrugMatrix in vitro pharmacology data”:

Columns and labels:
[1] = biological target: T1, Alpha-1A adrenergic receptor (Rattus norvegicus, UniProt P43140); test: DRUGMATRIX: Alpha-1A adrenergic receptor radioligand binding (ligand: prazosin); type: cell membranes, Wistar, Submaxillary gland, Membrane; settings: Not Active = under 50% inhibition at 10 µM
T1 sequence (P43140 whole entry): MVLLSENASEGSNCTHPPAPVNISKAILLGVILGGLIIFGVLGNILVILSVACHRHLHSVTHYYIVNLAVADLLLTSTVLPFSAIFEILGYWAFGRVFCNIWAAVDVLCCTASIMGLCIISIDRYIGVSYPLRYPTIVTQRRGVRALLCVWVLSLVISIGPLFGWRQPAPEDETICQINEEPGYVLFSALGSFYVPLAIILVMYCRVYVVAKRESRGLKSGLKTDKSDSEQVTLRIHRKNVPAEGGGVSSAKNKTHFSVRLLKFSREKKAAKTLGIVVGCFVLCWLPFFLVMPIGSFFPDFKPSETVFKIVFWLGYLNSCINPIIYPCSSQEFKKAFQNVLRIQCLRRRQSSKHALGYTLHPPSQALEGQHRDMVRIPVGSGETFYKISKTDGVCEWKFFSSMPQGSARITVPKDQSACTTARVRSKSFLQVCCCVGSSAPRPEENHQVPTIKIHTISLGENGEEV

B2 bradykinin receptor = biological target: T2, B2 bradykinin receptor (Homo sapiens, UniProt P30411); type: cell membranes, Membrane; settings: chem-1; also: in other assays of this panel Not Active means under 50% inhibition at 10 µM
T2 sequence (P30411 whole entry): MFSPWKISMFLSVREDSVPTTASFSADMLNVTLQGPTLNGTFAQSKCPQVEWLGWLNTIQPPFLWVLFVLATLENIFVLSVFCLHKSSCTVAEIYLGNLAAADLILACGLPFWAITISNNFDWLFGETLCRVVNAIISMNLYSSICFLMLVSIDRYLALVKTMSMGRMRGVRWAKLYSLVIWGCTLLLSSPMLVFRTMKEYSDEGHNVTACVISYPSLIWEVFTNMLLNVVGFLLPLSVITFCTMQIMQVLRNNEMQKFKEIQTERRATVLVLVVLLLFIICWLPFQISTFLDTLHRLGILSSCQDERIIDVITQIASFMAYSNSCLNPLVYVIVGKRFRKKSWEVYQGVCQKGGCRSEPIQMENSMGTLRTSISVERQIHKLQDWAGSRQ

[2] = biological target: T3, Muscarinic acetylcholine receptor M4 (Homo sapiens, UniProt P08173); type: cell membranes, CHO-K1, Membrane; also: in other assays of this panel Not Active means under 50% inhibition at 10 µM
T3 sequence (P08173 whole entry): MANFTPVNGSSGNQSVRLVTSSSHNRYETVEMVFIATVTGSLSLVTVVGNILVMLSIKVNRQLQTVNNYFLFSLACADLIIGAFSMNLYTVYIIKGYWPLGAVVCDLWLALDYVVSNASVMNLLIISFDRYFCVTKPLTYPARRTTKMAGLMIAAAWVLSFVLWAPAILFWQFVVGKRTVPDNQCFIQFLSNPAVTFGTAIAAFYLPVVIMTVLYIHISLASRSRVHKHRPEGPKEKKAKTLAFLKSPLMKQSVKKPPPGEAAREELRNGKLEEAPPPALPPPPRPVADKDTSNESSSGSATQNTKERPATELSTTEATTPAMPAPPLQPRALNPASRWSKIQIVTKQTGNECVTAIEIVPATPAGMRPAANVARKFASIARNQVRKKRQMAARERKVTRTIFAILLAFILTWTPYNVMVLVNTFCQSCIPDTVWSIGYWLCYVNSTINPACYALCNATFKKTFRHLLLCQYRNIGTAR

[3] = biological target: T4, Angiotensin-converting enzyme (Oryctolagus cuniculus, UniProt P12822); type: tissue-based, Lung;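 also: enzymatic inhibition of angiotensin-converting enzyme measured with FAPGG as the substrate; in other assays of this panel Not Active means under 50% inhibition at 10 µM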
T4 sequence (P12822 whole entry): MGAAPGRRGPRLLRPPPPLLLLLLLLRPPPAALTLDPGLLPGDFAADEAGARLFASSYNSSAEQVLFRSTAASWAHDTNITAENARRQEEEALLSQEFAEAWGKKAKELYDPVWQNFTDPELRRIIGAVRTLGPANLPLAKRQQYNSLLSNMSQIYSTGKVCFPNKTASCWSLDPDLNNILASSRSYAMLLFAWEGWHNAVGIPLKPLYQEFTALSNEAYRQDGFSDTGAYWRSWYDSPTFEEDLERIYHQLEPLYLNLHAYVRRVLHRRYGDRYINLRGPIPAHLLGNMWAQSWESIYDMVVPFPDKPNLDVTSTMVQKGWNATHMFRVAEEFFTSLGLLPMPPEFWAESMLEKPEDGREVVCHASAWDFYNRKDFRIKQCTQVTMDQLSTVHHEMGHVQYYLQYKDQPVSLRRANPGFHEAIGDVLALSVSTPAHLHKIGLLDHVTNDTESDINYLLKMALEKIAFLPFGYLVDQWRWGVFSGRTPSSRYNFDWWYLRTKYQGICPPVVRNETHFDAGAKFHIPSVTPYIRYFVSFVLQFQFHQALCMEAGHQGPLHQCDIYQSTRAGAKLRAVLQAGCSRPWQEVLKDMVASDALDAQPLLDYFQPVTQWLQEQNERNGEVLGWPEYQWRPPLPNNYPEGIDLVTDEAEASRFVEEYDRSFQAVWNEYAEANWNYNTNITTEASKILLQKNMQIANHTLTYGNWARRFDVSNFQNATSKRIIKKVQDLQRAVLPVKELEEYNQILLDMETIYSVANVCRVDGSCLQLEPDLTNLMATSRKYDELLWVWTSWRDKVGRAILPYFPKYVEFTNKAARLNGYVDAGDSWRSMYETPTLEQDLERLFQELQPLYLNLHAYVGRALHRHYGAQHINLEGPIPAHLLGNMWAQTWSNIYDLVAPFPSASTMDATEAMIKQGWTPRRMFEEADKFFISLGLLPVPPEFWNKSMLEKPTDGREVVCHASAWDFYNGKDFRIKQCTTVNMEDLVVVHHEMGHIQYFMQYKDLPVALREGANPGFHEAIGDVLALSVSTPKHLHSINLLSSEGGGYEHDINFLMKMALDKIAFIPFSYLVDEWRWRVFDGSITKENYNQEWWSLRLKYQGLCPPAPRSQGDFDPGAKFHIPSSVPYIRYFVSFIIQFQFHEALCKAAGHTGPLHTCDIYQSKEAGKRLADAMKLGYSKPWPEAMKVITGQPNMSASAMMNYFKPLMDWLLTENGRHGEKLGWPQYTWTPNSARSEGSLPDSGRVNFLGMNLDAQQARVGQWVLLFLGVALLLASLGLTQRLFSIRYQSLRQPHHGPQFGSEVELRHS

Compound: NYSTATIN
- IC50 [1]: Not Active
- Ki [1]: Not Active
- IC50 (B2 bradykinin receptor): Not Active
- Ki (B2 bradykinin receptor): Not Active
- IC50 ([2]; cho-k1): Not Active
- Ki ([2]; cho-k1): Not Active
- IC50 [3]: Not Active
- Ki [3]: Not Active

Compound: COc1cc(N)c(Cl)cc1C(=O)NC1CCN(CCCOc2ccc(F)cc2)CC1OC (configuration not stated) [CISAPRIDE]
- IC50 ([1]; read-out: IC50): 120 nM
- Ki ([1]; read-out: Ki): 49 nM
- IC50 (B2 bradykinin receptor): Not Active
- IC50 ([2]; cho-k1): Not Active
- IC50 [3]: Not Active

Compound: C[C@@H]1C[C@H]2[C@@H]3CCC4=CC(=O)C=C[C@]4(C)[C@@]3(F)[C@@H](O)C[C@]2(C)[C@@]1(O)C(=O)CO [DEXAMETHASONE]
- IC50 [1]: Not Active
- IC50 (B2 bradykinin receptor): Not Active
- IC50 ([2]; cho-k1): Not Active
- IC50 [3]: Not Active

Compound: O=C(c1ccccc1C(F)(F)F)N1CCC(Cc2ccccc2)CC1
- IC50 [1]: Not Active
- IC50 (B2 bradykinin receptor): Not Active
- IC50 ([2]; cho-k1): Not Active
- IC50 [3]: Not Active

Compound: Brc1c(NC2=NCCN2)ccc2nccnc12 [BRIMONIDINE]
- IC50 ([1]; read-out: IC50): 6340 nM
- Ki ([1]; read-out: Ki): 2570 nM
- IC50 (B2 bradykinin receptor): Not Active
- IC50 ([2]; cho-k1): Not Active
- IC50 [3]: Not Active

Compound: CC1(C)S[C@@H]2[C@H](NC(=O)[C@H](N)c3ccccc3)C(=O)N2[C@H]1C(=O)O [AMPICILLIN]
- IC50 [1]: Not Active
- IC50 (B2 bradykinin receptor): Not Active
- IC50 ([2]; cho-k1): Not Active
- IC50 [3]: Not Active

Compound: C[n+]1ccccc1/C=N/O.[Cl-] [PRALIDOXIME CHLORIDE]
- IC50 [1]: Not Active
- IC50 (B2 bradykinin receptor): Not Active
- IC50 ([2]; cho-k1): Not Active
- IC50 [3]: Not Active

Compound: Cc1c(OCC(F)(F)F)ccnc1C[S+]([O-])c1nc2ccccc2[nH]1 (configuration not stated) [LANSOPRAZOLE]
- IC50 [1]: Not Active
- IC50 (B2 bradykinin receptor): Not Active
- IC50 ([2]; cho-k1): Not Active
- IC50 [3]: Not Active

Compound: COc1ccc(C2C(=O)c3ccccc3C2=O)cc1 [ANISINDIONE]
- IC50 [1]: Not Active
- IC50 (B2 bradykinin receptor): Not Active
- IC50 ([2]; cho-k1): Not Active
- IC50 [3]: Not Active

Compound: COC(=O)Nc1nc2ccc([S+]([O-])c3ccccc3)cc2[nH]1 (configuration not stated) [OXFENDAZOLE]
- IC50 [1]: Not Active
- IC50 (B2 bradykinin receptor): Not Active
- IC50 ([2]; cho-k1): Not Active
- IC50 [3]: Not Active

Compound: CC(C(=O)O)c1ccc2oc(-c3ccc(Cl)cc3)nc2c1 (configuration not stated) [BENOXAPROFEN]
- IC50 [1]: Not Active
- IC50 (B2 bradykinin receptor): Not Active
- IC50 ([2]; cho-k1): Not Active
- IC50 [3]: Not Active

Compound: Cc1cc2c(OCC(CNC(C)(C)C)OC(=O)c3ccccc3)cccc2[nH]1 (configuration not stated) [BOPINDOLOL]
- IC50 [1]: Not Active
- IC50 (B2 bradykinin receptor): Not Active
- IC50 ([2]; cho-k1): Not Active
- IC50 [3]: Not Active

Compound: Nc1ccn([C@@H]2O[C@H](CO)[C@@H](O)C2(F)F)c(=O)n1 [GEMCITABINE]
- IC50 [1]: Not Active
- IC50 (B2 bradykinin receptor): Not Active
- IC50 ([2]; cho-k1): Not Active
- IC50 [3]: Not Active

Compound: COc1ccc2[nH]cc(CCNC(C)=O)c2c1 [MELATONIN]
- IC50 [1]: Not Active
- IC50 (B2 bradykinin receptor): Not Active
- IC50 ([2]; cho-k1): Not Active
- IC50 [3]: Not Active

Compound: GADOPENTETATE DIMEGLUMINE
- IC50 [1]: Not Active
- Ki [1]: Not Active
- IC50 (B2 bradykinin receptor): Not Active
- Ki (B2 bradykinin receptor): Not Active
- IC50 ([2]; cho-k1): Not Active
- Ki ([2]; cho-k1): Not Active
- IC50 [3]: Not Active
- Ki [3]: Not Active

Compound: C#CC1(O)CC[C@H]2[C@@H]3CCC4=CC(=O)CC[C@@H]4[C@H]3CC[C@@]21CC (some centres not stated) [NORGESTREL]
- IC50 [1]: Not Active
- IC50 (B2 bradykinin receptor): Not Active
- IC50 ([2]; cho-k1): Not Active
- IC50 [3]: Not Active

Compound: C[n+]1ccc(-c2cc[n+](C)cc2)cc1.[Cl-].[Cl-] [PARAQUAT DICHLORIDE]
- IC50 [1]: Not Active
- IC50 (B2 bradykinin receptor): Not Active
- IC50 ([2]; cho-k1): Not Active
- IC50 [3]: Not Active

Compound: C[C@@H]1CC[C@@]2(OC1)O[C@H]1[C@@H](O)[C@H]3[C@@H]4CC[C@H]5C[C@@H](O[C@@H]6O[C@H](CO)[C@H](O[C@@H]7O[C@H](CO)C(O)[C@H](O[C@@H]8OC[C@@H](O)[C@H](O)[C@H]8O)[C@H]7O[C@@H]7O[C@H](CO)[C@H](O)[C@H](O[C@@H]8O[C@H](CO)[C@@H](O)[C@H](O)[C@H]8O)[C@H]7O)[C@H](O)[C@H]6O)[C@H](O)C[C@]5(C)[C@H]4CC[C@]3(C)[C@H]1[C@@H]2C (some centres not stated) [DIGITONIN]
- IC50 [1]: Not Active
- IC50 (B2 bradykinin receptor): Not Active
- IC50 ([2]; cho-k1): Not Active
- IC50 [3]: Not Active

Compound: Oc1c(Cl)cc(Cl)c(Cl)c1Cc1c(O)c(Cl)cc(Cl)c1Cl [HEXACHLOROPHENE]
- IC50 [1]: Not Active
- IC50 (B2 bradykinin receptor): Not Active
- IC50 ([2]; cho-k1): Not Active
- IC50 [3]: Not Active

Compound: O=C1CN=C(c2ccccc2Cl)c2cc([N+](=O)[O-])ccc2N1 [CLONAZEPAM]
- IC50 [1]: Not Active
- IC50 (B2 bradykinin receptor): Not Active
- IC50 ([2]; cho-k1): Not Active
- IC50 [3]: Not Active

Compound: C[C@@H](CO)NC(=O)[C@@H]1C=C2c3cccc4[nH]cc(c34)C[C@H]2N(C)C1 [ERGONOVINE]
- IC50 [1]: Not Active
- IC50 (B2 bradykinin receptor): Not Active
- IC50 ([2]; cho-k1): Not Active
- IC50 [3]: Not Active

Compound: CCn1cc(C(=O)O)c(=O)c2cnc(N3CCCC3)nc21 [PIROMIDIC ACID]
- IC50 [1]: Not Active
- IC50 (B2 bradykinin receptor): Not Active
- IC50 ([2]; cho-k1): Not Active
- IC50 [3]: Not Active

Compound: C[C@@H]1C[C@H]2[C@@H]3CCC4=CC(=O)C=C[C@]4(C)[C@@]3(F)[C@@H](O)C[C@]2(C)[C@H]1C(=O)CO [DESOXIMETASONE]
- IC50 [1]: Not Active
- IC50 (B2 bradykinin receptor): Not Active
- IC50 ([2]; cho-k1): Not Active
- IC50 [3]: Not Active

Compound: CN(C)CC[C@@H](c1ccc(Cl)cc1)c1ccccn1 [DEXCHLORPHENIRAMINE]
- IC50 [1]: Not Active
- IC50 (B2 bradykinin receptor): Not Active
- IC50 ([2]; read-out: IC50): 1980 nM
- Ki ([2]; read-out: Ki): 276 nM
- IC50 [3]: Not Active
